Data reported in patent US9371320B2, “Heterocyclic compound” (TAKEDA PHARMACEUTICAL COMPANY LIMITED, priority 2012, dated 2016).

Tests used:
JAK1 = target: T1, JAK1 (Homo sapiens, UniProt P23458); test: JAK1 enzyme inhibition test (LANCE method); type: biochemical; conditions: for inhibition at 1 µM: test compound 1 μM, read-out: Inhibitory rate (%) JAK1 1 μM
T1 construct: purchased Invitrogen
In short: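 TR-FRET (LANCE) kinase assay using JAK1 at 187.5 ng/mL, ULight-JAK1 peptide at 300 nM and ATP at 150 μM, given as solution concentrations before mixing. Buffer was 50 mM HEPES pH 7.5 with 10 mM MgCl2 and 2 mM DTT, and the reaction ran 1 h at room temperature. Eu anti-phosphotyrosine signal at 665 nm was expressed relative to a no-enzyme well, taken as 100% inhibition.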

Tyk2 = target: T2, Tyk2 (Homo sapiens, UniProt P29597); test: Tyk2 enzyme inhibition test (LANCE method); type: biochemical; conditions: for inhibition at 1 µM: test compound 1 μM, read-out: Inhibitory rate (%) Tyk2 1 μM
T2 construct: purchased Invitrogen
T2 sequence (P29597 whole entry): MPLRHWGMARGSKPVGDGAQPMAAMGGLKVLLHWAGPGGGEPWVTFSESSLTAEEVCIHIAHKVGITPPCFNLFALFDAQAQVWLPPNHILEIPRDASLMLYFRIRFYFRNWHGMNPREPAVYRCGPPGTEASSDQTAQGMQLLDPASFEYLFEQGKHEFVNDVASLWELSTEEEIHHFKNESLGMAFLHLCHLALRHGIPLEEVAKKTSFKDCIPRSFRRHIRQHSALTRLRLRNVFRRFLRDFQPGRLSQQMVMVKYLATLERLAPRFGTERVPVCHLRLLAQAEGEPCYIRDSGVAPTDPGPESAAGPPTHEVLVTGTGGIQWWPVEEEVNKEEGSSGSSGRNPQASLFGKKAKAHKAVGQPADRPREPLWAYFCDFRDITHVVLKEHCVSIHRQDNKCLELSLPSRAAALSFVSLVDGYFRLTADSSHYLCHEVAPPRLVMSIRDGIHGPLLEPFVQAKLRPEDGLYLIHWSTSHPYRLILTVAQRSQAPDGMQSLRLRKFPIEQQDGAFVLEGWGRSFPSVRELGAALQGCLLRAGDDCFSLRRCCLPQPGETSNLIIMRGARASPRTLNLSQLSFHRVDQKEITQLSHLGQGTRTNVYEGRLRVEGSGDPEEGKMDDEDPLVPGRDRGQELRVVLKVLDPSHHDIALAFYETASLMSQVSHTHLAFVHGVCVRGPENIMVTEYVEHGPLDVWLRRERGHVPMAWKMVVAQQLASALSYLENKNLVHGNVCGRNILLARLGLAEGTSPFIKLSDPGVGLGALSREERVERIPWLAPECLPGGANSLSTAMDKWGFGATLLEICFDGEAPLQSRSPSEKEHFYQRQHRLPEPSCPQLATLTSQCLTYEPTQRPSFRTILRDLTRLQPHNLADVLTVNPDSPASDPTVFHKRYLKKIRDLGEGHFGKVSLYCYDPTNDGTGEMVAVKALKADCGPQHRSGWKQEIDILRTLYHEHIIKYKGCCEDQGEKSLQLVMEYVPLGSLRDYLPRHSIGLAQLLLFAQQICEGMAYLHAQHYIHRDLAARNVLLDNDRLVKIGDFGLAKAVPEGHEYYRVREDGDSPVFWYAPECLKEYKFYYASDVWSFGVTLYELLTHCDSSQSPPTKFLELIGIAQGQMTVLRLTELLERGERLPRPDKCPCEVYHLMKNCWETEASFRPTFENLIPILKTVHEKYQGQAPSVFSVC
In short: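 Recombinant Tyk2 (375 ng/mL stock) with ULight-JAK1 peptide (300 nM stock) and ATP (30 μM stock) in HEPES pH 7.5/MgCl2/EGTA/DTT buffer, 1 h at room temperature. Stopped with EDTA plus Eu-anti-phosphotyrosine antibody; TR-FRET read at 665 nm after 1 h. No-enzyme wells define 100% inhibition.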

T1 sequence (P23458 whole entry): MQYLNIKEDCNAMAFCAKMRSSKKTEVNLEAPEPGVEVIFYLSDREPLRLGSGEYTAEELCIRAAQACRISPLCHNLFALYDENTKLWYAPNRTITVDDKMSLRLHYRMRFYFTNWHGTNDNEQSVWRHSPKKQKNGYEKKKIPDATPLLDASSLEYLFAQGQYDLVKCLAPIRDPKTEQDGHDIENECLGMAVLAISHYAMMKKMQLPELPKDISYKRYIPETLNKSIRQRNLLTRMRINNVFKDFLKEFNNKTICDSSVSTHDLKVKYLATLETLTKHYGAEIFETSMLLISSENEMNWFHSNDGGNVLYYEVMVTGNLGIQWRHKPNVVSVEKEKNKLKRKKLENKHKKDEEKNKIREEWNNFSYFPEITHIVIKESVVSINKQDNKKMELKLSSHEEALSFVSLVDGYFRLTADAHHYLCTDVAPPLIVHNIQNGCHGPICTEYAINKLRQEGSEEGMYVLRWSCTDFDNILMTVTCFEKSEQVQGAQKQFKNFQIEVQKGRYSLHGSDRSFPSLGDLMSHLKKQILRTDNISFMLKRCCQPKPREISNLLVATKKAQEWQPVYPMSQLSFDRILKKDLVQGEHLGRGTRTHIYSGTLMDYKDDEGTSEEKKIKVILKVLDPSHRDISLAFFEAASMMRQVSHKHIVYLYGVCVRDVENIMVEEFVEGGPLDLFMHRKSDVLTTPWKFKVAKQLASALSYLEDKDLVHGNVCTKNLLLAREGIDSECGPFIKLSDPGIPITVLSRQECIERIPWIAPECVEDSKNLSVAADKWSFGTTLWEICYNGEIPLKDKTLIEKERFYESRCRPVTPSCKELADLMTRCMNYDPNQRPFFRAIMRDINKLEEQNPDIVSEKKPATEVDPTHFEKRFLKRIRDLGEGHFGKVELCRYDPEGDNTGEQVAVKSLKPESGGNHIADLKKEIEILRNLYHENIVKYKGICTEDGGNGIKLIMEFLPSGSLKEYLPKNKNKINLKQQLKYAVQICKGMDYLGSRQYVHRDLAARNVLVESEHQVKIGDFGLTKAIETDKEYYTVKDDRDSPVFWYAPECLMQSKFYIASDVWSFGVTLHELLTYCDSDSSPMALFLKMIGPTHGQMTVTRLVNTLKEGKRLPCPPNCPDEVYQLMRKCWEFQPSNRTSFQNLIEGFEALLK

inhibition at 1 µM (JAK1) [%]	inhibition at 1 µM (Tyk2) [%]	inhibition at 10 µM (JAK1; test compound 10 μM, read-out: Inhibitory rate (%) JAK1 10 μM) [%]	inhibition at 10 µM (Tyk2; test compound 10 μM, read-out: Inhibitory rate (%) Tyk2 10 μM) [%]	Structure (SMILES)
51	99			COCCNC(=O)c1ccc(-c2nn(-c3c(F)cccc3F)c3c(Cl)c[nH]c(=O)c23)cc1 [Example 231, 4-(7-chloro-1-(2,6-difluorophenyl)-4-oxo-4,5-dihydro-1H-pyrazolo[4,3-c]pyridin-3-yl)-N-(2-methoxyethyl)benzamide]
60	100			O=C(NCCO)c1ccc(-c2nn(-c3c(F)cccc3F)c3c(Cl)c[nH]c(=O)c23)cc1 [Example 232, 4-(7-chloro-1-(2,6-difluorophenyl)-4-oxo-4,5-dihydro-1H-pyrazolo[4,3-c]pyridin-3-yl)-N-(2-hydroxyethyl)benzamide]
99	99			O=c1[nH]ccc2c1c(-c1csc(N3CCOCC3)c1)nn2-c1c(F)cccc1F [Example 234, 1-(2,6-difluorophenyl)-3-(5-(morpholin-4-yl)-3-thienyl)-1,5-dihydro-4H-pyrazolo[4,3-c]pyridin-4-one]
92	99			Cc1c[nH]c(=O)c2c(-c3ccc(N4CCOCC4)cc3)nn(-c3c(F)cccc3F)c12 [Example 235, 1-(2,6-difluorophenyl)-7-methyl-3-(4-(morpholin-4-yl)phenyl)-1,5-dihydro-4H-pyrazolo[4,3-c]pyridin-4-one]
65	99			O=c1[nH]cc(Cl)c2c1c(-c1ccc(N3CCSCC3)cc1)nn2-c1c(F)cccc1F [Example 236, 7-chloro-1-(2,6-difluorophenyl)-3-(4-(thiomorpholin-4-yl)phenyl)-1,5-dihydro-4H-pyrazolo[4,3-c]pyridin-4-one]
87	99			O=C(NCCO)c1ccc(-c2nn(-c3c(F)cccc3F)c3cc[nH]c(=O)c23)cc1 [Example 237, 4-(1-(2,6-difluorophenyl)-4-oxo-4,5-dihydro-1H-pyrazolo[4,3-c]pyridin-3-yl)-N-(2-hydroxyethyl)benzamide]
72	91			Cn1cc(-c2nn(-c3c(F)cccc3F)c3cc[nH]c(=O)c23)ccc1=O [Example 238, 1-(2,6-difluorophenyl)-3-(1-methyl-6-oxo-1,6-dihydropyridin-3-yl)-1,5-dihydro-4H-pyrazolo[4,3-c]pyridin-4-one]
46	99			CN1CCN(c2ccc(-c3nn(-c4c(F)cccc4F)c4c(Cl)c[nH]c(=O)c34)cc2)C1=O [Example 239, 7-chloro-1-(2,6-difluorophenyl)-3-(4-(3-methyl-2-oxoimidazolidin-1-yl)phenyl)-1,5-dihydro-4H-pyrazolo[4,3-c]pyridin-4-one]
88	99			CN1CCN(c2ccc(-c3nn(-c4c(F)cccc4F)c4cc[nH]c(=O)c34)cc2)C1=O [Example 240, 1-(2,6-difluorophenyl)-3-(4-(3-methyl-2-oxoimidazolidin-1-yl)phenyl)-1,5-dihydro-4H-pyrazolo[4,3-c]pyridin-4-one]
53	98			COCCN(C)c1ccc(-c2nn(-c3c(F)cccc3F)c3c(Cl)c[nH]c(=O)c23)cc1 [Example 241, 7-chloro-1-(2,6-difluorophenyl)-3-(4-((2-methoxyethyl)(methyl)amino)phenyl)-1,5-dihydro-4H-pyrazolo[4,3-c]pyridin-4-one]
27	97			O=c1[nH]cc(Cl)c2c1c(-c1ccc(N3CCS(=O)(=O)CC3)cc1)nn2-c1c(F)cccc1F [Example 242, 7-chloro-1-(2,6-difluorophenyl)-3-(4-(1,1-dioxidothiomorpholin-4-yl)phenyl)-1,5-dihydro-4H-pyrazolo[4,3-c]pyridin-4-one]
52	76			CC(C)(C)n1nc(-c2ccc(N3CCOCC3)cc2)c2c(=O)[nH]ccc21 [Example 243, 1-tert-butyl-3-(4-(morpholin-4-yl)phenyl)-1,5-dihydro-4H-pyrazolo[4,3-c]pyridin-4-one]
89	97			N#Cc1cc(F)c(-n2nc(-c3ccc(N4CCOCC4)cc3)c3c(=O)[nH]ccc32)c(F)c1 [Example 244, 3,5-difluoro-4-(3-(4-(morpholin-4-yl)phenyl)-4-oxo-4,5-dihydro-1H-pyrazolo[4,3-c]pyridin-1-yl)benzonitrile]
96	100			C[C@H]1COCCN1c1ccc(-c2nn(-c3c(F)cccc3F)c3cc[nH]c(=O)c23)cc1 [Example 245, 1-(2,6-difluorophenyl)-3-(4-((3S)-3-methylmorpholin-4-yl)phenyl)-1,5-dihydro-4H-pyrazolo[4,3-c]pyridin-4-one]
94	99			C[C@@H]1COCCN1c1ccc(-c2nn(-c3c(F)cccc3F)c3cc[nH]c(=O)c23)cc1 [Example 246, 1-(2,6-difluorophenyl)-3-(4-((3R)-3-methylmorpholin-4-yl)phenyl)-1,5-dihydro-4H-pyrazolo[4,3-c]pyridin-4-one]
86	88			NC(=O)c1cc(-c2nn(-c3ccccn3)c3cc[nH]c(=O)c23)cs1 [Example 247, 4-(4-oxo-1-(pyridin-2-yl)-4,5-dihydro-1H-pyrazolo[4,3-c]pyridin-3-yl)thiophene-2-carboxamide]
96	70			CC(C)(C)n1nc(Nc2cccc(S(N)(=O)=O)c2)c2c(=O)[nH]ccc21 [Example 248, 3-((1-tert-butyl-4-oxo-4,5-dihydro-1H-pyrazolo[4,3-c]pyridin-3-yl)amino)benzenesulfonamide]
		30	25	COc1ccc(CNc2nn(C(C)(C)C)c3cc[nH]c(=O)c23)cc1 [Example 249, 1-tert-butyl-3-((4-methoxybenzyl)amino)-1,5-dihydro-4H-pyrazolo[4,3-c]pyridin-4-one]
93	69			CC(C)(C)n1nc(Nc2ccccc2)c2c(=O)[nH]ccc21 [Example 250, 3-anilino-1-tert-butyl-1,5-dihydro-4H-pyrazolo[4,3-c]pyridin-4-one]
96	99			NC(=O)c1cc(F)c(-n2nc(-c3ccc(N4CCOCC4)cc3)c3c(=O)[nH]ccc32)c(F)c1 [Example 251, 3,5-difluoro-4-(3-(4-(morpholin-4-yl)phenyl)-4-oxo-4,5-dihydro-1H-pyrazolo[4,3-c]pyridin-1-yl)benzamide]
91	98			NC(=O)Cc1cccc(-c2nn(-c3c(F)cccc3F)c3cc[nH]c(=O)c23)c1 [Example 252, 2-(3-(1-(2,6-difluorophenyl)-4-oxo-4,5-dihydro-1H-pyrazolo[4,3-c]pyridin-3-yl)phenyl)acetamide]
87	98			CNC(=O)Cc1cccc(-c2nn(-c3c(F)cccc3F)c3cc[nH]c(=O)c23)c1 [Example 253, 2-(3-(1-(2,6-difluorophenyl)-4-oxo-4,5-dihydro-1H-pyrazolo[4,3-c]pyridin-3-yl)phenyl)-N-methylacetamide]
65	98			NC(=O)c1cccc(-c2nn(-c3c(F)cccc3F)c3c(Cl)c[nH]c(=O)c23)c1 [Example 254, 3-(7-chloro-1-(2,6-difluorophenyl)-4-oxo-4,5-dihydro-1H-pyrazolo[4,3-c]pyridin-3-yl)benzamide]
93	98			NC(=O)c1cccc(-c2nn(-c3c(F)cccc3F)c3cc[nH]c(=O)c23)c1 [Example 255, 3-(1-(2,6-difluorophenyl)-4-oxo-4,5-dihydro-1H-pyrazolo[4,3-c]pyridin-3-yl)benzamide]
92	98			O=c1[nH]ccc2c1c(-c1ccc(C3=CCOCC3)cc1)nn2-c1c(F)cccc1F [Example 256, 1-(2,6-difluorophenyl)-3-(4-(3,6-dihydro-2H-pyran-4-yl)phenyl)-1,5-dihydro-4H-pyrazolo[4,3-c]pyridin-4-one]
96	98			O=c1[nH]ccc2c1c(-c1ccc(C3CCOCC3)cc1)nn2-c1c(F)cccc1F [Example 257, 1-(2,6-difluorophenyl)-3-(4-(tetrahydro-2H-pyran-4-yl)phenyl)-1,5-dihydro-4H-pyrazolo[4,3-c]pyridin-4-one]
43	88			CN(C)Cc1cccc(-c2nn(-c3c(F)cccc3F)c3cc[nH]c(=O)c23)c1 [Example 258, 1-(2,6-difluorophenyl)-3-(3-((dimethylamino)methyl)phenyl)-1,5-dihydro-4H-pyrazolo[4,3-c]pyridin-4-one]
59	81			CCOC(=O)c1ccc(-c2nn(-c3c(F)cccc3F)c3cc[nH]c(=O)c23)cn1 [Example 259, ethyl 5-(1-(2,6-difluorophenyl)-4-oxo-4,5-dihydro-1H-pyrazolo[4,3-c]pyridin-3-yl)pyridine-2-carboxylate]
77	94			COC(=O)c1ccc(-c2nn(-c3c(F)cccc3F)c3cc[nH]c(=O)c23)cc1 [Example 260, methyl 4-(1-(2,6-difluorophenyl)-4-oxo-4,5-dihydro-1H-pyrazolo[4,3-c]pyridin-3-yl)benzoate]
